Measurements from patent US20250171452A1 (Viscient Bio, Inc., priority 2022, published 2025).
Structures can show the parent of a compound that is named as a salt.

These compounds were tested against IDO2 (Homo sapiens (Human), UniProt Q6ZQW0) (assay: Cellular IDO2 assay, doxycycline and 5-methoxy-L-tryptophan medium, colorimetric). Details: cellular level, 72 h incubation, signal at 480 nm.
IDO2, sequence (Q6ZQW0 whole entry, species assumed): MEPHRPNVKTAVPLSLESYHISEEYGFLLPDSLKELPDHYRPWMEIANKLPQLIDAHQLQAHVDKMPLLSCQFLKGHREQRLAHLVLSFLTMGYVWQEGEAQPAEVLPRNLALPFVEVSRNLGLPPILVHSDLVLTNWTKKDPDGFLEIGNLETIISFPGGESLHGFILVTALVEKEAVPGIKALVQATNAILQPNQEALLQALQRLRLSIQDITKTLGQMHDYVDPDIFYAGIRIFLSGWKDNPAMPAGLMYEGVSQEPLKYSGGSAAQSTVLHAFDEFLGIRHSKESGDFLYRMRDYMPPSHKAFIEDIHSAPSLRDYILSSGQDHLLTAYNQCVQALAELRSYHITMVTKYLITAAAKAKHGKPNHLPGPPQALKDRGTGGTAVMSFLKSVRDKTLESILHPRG
Type: cell-based
“3-bromo-8-nitroindolo[2,1-b]quinazoline-6,12-dione [Compound 65]” gave an IC50 of 50 to 500 nM. In the case of `CON=C1c2cc(F)ccc2-n2c1nc1cc(CNS(C)(=O)=O)ccc1c2=O` (stereo in doubt) [Compound 91, (Z)—N-((8-fluoro-6-(methoxyimino)-12-oxo-6,12-dihydroindolo[2,1-b]quinazolin-3-yl)methyl)methanesulfonamide], the IC50 is reported as under 50 nM. With `CON=C1c2cc(F)ccc2-n2c1nc1cc(CNC(=O)OCc3ccccc3)ccc1c2=O` (stereo in doubt) [Compound 93, benzyl (Z)-((8-fluoro-6-(methoxyimino)-12-oxo-6,12-dihydroindolo[2,1-b]quinazolin-3-yl)methyl)carbamate] the IC50 was 50 to 500 nM. In the case of `CON=C1c2cc(F)ccc2-n2c1nc1cc(CNC(C)=O)ccc1c2=O` (stereo in doubt) [Compound 94, (Z)—N-((8-fluoro-6-(methoxyimino)-12-oxo-6,12-dihydroindolo[2,1-b]quinazolin-3-yl)methyl)acetamide], the IC50 is reported as 50 to 500 nM. Work on `CON=C1c2cc(C#N)ccc2-n2c1nc1c(Nc3ccc(F)cc3)cccc1c2=O` (stereo in doubt) [Compound 118, (Z)-4-((4-Fluorophenyl)amino)-6-(methoxyimino)-12-oxo-6,12-dihydroindolo[2,1-b]quinazoline-8-carbonitrile] yielded an IC50 of under 50 nM. `CON=C1c2cc(F)ccc2-n2c1nc1c(Nc3ccc(F)cc3)cccc1c2=O` (stereo in doubt) [Compound 122, (Z)-8-Fluoro-4-((4-fluorophenyl)amino)-6-(methoxyimino)indolo[2,1-b]quinazolin-12(6H)-one] gave an IC50 of over 500 nM. `O=c1c2cccc(Nc3ccc(F)cc3)c2nc2n1-c1ccc(F)cc1C2=NO` (stereo in doubt) [Compound 123, (Z)-8-Fluoro-4-((4-fluorophenyl)amino)-6-(hydroxyimino)indolo[2,1-b]quinazolin-12(6H)-one] was tested, and the IC50 was 50 to 500 nM. Compound `Cc1ccc2nc3n(c(=O)c2c1)-c1ccc([N+](=O)[O-])cc1C3=O` [Compound 52, 2-Methyl-8-nitroindolo[2,1-b]quinazoline-6,12-dione] has an IC50 of under 50 nM. Work on `O=C1c2cc(C(F)(F)F)ccc2-n2c1nc1ccccc1c2=O` [Compound 53, 8-(Trifluoromethyl)indolo[2,1-b]quinazoline-6,12-dione] yielded an IC50 of under 50 nM. With `O=C1c2cc([N+](=O)[O-])ccc2-n2c1nc1ccc(F)cc1c2=O` [Compound 54, 2-Fluoro-8-nitroindolo[2,1-b]quinazoline-6,12-dione] the IC50 was under 50 nM. For `O=C1c2cc([N+](=O)[O-])ccc2-n2c1nc1cccc(Br)c1c2=O` [Compound 55, 1-Bromo-8-nitroindolo[2,1-b]quinazoline-6,12-dione], the IC50 was over 500 nM. `O=C1c2cc([N+](=O)[O-])ccc2-n2c1nc1cc(Cl)cc(Cl)c1c2=O` [Compound 56, 1,3-Dichloro-8-nitroindolo[2,1-b]quinazoline-6,12-dione] was tested, and the IC50 was 50 to 500 nM. `O=C1c2cc([N+](=O)[O-])ccc2-n2c1nc1cnccc1c2=O` [Compound 57, 9-Nitropyrido[3′,4′:4,5]pyrimido[1,2-a]indole-5,11-dione] gave an IC50 of under 50 nM. `COc1cc2c(=O)n3c(nc2cn1)C(=O)c1cc([N+](=O)[O-])ccc1-3` [Compound 58, 3-Methoxy-9-nitropyrido[3′,4′:4,5]pyrimido[1,2-a]indole-5,11-dione] was tested, and the IC50 was 50 to 500 nM. Work on `O=C1c2c(ccc(F)c2F)-n2c1nc1ccccc1c2=O` [Compound 60, 7,8-Difluoroindolo[2,1-b]quinazoline-6,12-dione] yielded an IC50 of under 50 nM. Work on `NCCNC(=O)c1ccc2c(c1)/C(=N\O)c1nc3cc(Cl)ccc3c(=O)n1-2` [Compound 61] yielded an IC50 of over 500 nM. Compound `O=c1c2ccccc2nc2n1-c1ccc([N+](=O)[O-])cc1C2` [Compound 62, 8-Nitroindolo[2,1-b]quinazolin-12(6H)-one] has an IC50 of 50 to 500 nM. Compound `[N-]=[N+]=Nc1ccc2c(c1)C(=O)c1nc3cc(Cl)ccc3c(=O)n1-2` [Compound 66] has an IC50 of under 50 nM. Compound `CS(=O)(=O)c1ccc2c(c1)/C(=N\O)c1nc3cc(F)ccc3c(=O)n1-2` [Compound 67] has an IC50 of 50 to 500 nM. Compound `NCCNC(=O)c1ccc2c(c1)/C(=N\O)c1nc3cc(Cl)ccc3c(=O)n1-2` [Compound 68] has an IC50 of 50 to 500 nM. `[2H]C([2H])(Nc1ccc2c(=O)n3c(nc2c1)C(=O)c1cc(F)ccc1-3)c1ccc(F)cc1` [Compound 69] gave an IC50 of under 50 nM. `[2H]C([2H])(Nc1ccc2c(=O)n3c(nc2c1)C(=O)c1cc(C#N)ccc1-3)c1ccc(F)cc1` [Compound 70] showed an IC50 of under 50 nM. Compound `N#Cc1ccc2c(c1)C(=O)c1nc3c(Oc4ccc(F)cc4)cccc3c(=O)n1-2` [Compound 71] has an IC50 of under 50 nM. Work on `N#Cc1ccc2c(c1)Cc1nc3cc(F)ccc3c(=O)n1-2` [Compound 72] yielded an IC50 of under 50 nM. `CC1(CCC(=O)Nc2ccc3c(c2)C(=O)c2nc4cc(Cl)ccc4c(=O)n2-3)N=N1` [Compound 73] was tested, and the IC50 was 50 to 500 nM. In the case of `CO/N=C1\c2cc(F)ccc2-n2c1nc1cc(CN3CCN(C)CC3)ccc1c2=O` [Compound 74], the IC50 is reported as over 500 nM. For `NS(=O)(=O)c1ccc2c(c1)C(=O)c1nc3cc(Cl)ccc3c(=O)n1-2` [Compound 75], the IC50 was 50 to 500 nM. Compound `O=c1c2ccc(Cl)cc2nc2n1-c1ccc(Br)cc1C2` [Compound 76] has an IC50 of under 50 nM. In the case of `CC(C)(C)OC(=O)NCCNC(=O)c1ccc2c(c1)C(=O)c1nc3cc(Cl)ccc3c(=O)n1-2` [Compound 77], the IC50 is reported as 50 to 500 nM. `O=C1c2cc(SCc3ccccc3)ccc2-n2c1nc1cc(Cl)ccc1c2=O` [Compound 78] gave an IC50 of 50 to 500 nM. With `CN(C)S(=O)(=O)c1ccc2c(c1)C(=O)c1nc3cc(F)ccc3c(=O)n1-2` [Compound 79] the IC50 was under 50 nM. Work on `NC(=O)c1ccc2c(c1)Cc1nc3cc(F)ccc3c(=O)n1-2` [Compound 80] yielded an IC50 of 50 to 500 nM. `O=C1c2cc(F)ccc2-n2c1nc1cc(NCc3ccc(F)cc3)ccc1c2=O` [Compound 81] showed an IC50 of under 50 nM. For `CNS(=O)(=O)c1ccc2c(c1)C(=O)c1nc3cc(F)ccc3c(=O)n1-2` [Compound 82], the IC50 was under 50 nM. `O=C1c2cc(F)ccc2-n2c1nc1cc(Nc3ccc(F)cc3)ccc1c2=O` [Compound 83] showed an IC50 of under 50 nM. With `N#Cc1ccc2c(c1)/C(=N\O)c1nc3cc(Cl)ccc3c(=O)n1-2` [Compound 84] the IC50 was under 50 nM. With `CS(=O)(=O)c1ccc2c(c1)Cc1nc3cc(F)ccc3c(=O)n1-2` [Compound 85] the IC50 was 50 to 500 nM. In the case of `CS(=O)(=O)Nc1ccc2c(c1)C(=O)c1nc3cc(Cl)cc(Cl)c3c(=O)n1-2` [Compound 86], the IC50 is reported as 50 to 500 nM. `CS(=O)(=O)c1ccc2c(c1)C(=O)c1nc3cc(Cl)cc(Cl)c3c(=O)n1-2` [Compound 87] was tested, and the IC50 was under 50 nM. `NS(=O)(=O)NCc1ccc2c(=O)n3c(nc2c1)C(=O)c1cc(F)ccc1-3` [Compound 88] showed an IC50 of under 50 nM. `O=C1c2cc(F)ccc2-n2c1nc1cc(-c3c[nH]cn3)ccc1c2=O` [Compound 89, 8-fluoro-3-(1H-imidazol-4-yl)indolo[2,1-b]quinazoline-6,12-dione] was tested, and the IC50 was 50 to 500 nM. `NCc1ccc2c(=O)n3c(nc2c1)C(=O)c1cc(F)ccc1-3` [Compound 90, 3-(aminomethyl)-8-fluoroindolo[2,1-b]quinazoline-6,12-dione Hydrochloride Salt] gave an IC50 of 50 to 500 nM. Compound `CC(C)(C)OC(=O)NCc1ccc2c(=O)n3c(nc2c1)C(=O)c1cc(F)ccc1-3` [Compound 92] has an IC50 of under 50 nM.
